Measured values from US9957253B2, “Triaminopyrimidine compounds useful for preventing or treating malaria” (MMV MEDICINES FOR MALARIA VENTURE, priority 2014, dated 2018).
Where a name gives a salt, the structure may show the parent alone. Read-outs that look alike come from different tables or passages of the source.

Assays:
[1] = test system: chloroquine sensitive NF54 strain of P. falciparum; assay: In vitro antiplasmodial activity (SYBR I), NF54 strain; format: cell-based, Plasmodium falciparum
Description: (§1) Measuring In Vitro Antiplasmodial Activity
(§2) The test samples were tested in duplicate on two separate occasions against chloroquine sensitive NF54 (MRA-1000, MR4, ATCC, Manassas, Va.) and chloroquine-resistant K1 strains of P. falciparum. A modified method of Trager and Jensen was employed to maintain continuous in vitro cultures of asexual blood stages of P. falciparum (Trageret al., 1976, Science, 193, 673-675). Quantitative assessment of antiplasmodial activity in vitro was determined using the SYBR I method as described earlier (Johnson et al., 2007, Antimicrob. Agents Chemother., 51, 1926-1933).
(§3) The percent inhibition with respect to the drug-free control was plotted against the logarithm of drug concentration. The growth inhibition curves were fitted by nonlinear regression using the sigmoidal dose-response (variable slope) formula to yield the concentration-response curves. […] Chloroquine diphosphate (CQ) (Sigma), artesunate (Sigma), and pyrimethamine were used as reference drugs in all experiments.

[2] = test system: chloroquine-resistant K1 strain of P. falciparum; assay: In vitro antiplasmodial activity (SYBR I), K1 strain; format: cell-based, Plasmodium falciparum
Description: as §1, §2, §3

[3] = test system: P. falciparum field isolates; assay: Ex vivo drug susceptibility (schizont maturation) of P. falciparum field isolates; format: cell-based; conditions: Plasmodium falciparum, read-out: P. falciparum IC50
Description: (§4) Further, compounds of the invention (Examples 2 and 13) were also tested against field isolates of falciparum and vivax malaria, along with three control antimalarials as described in the protocol below.
(§5) Ex Vivo Activity of Examples 2 and 13 Against Drug Resistant P. falciparum and P. Vivax Field Isolates
(§6) Standard antimalarial drugs chloroquine (CQ), amodiaquine (AQ), piperaquine (PIP), mefloquine (MFQ), and artesunate (AS) and compounds of the invention were prepared as 1 mg/mL stock solutions in H2O or dimethyl sulfoxide (DMSO) according to the manufacturers' instructions. Drug plates were pre-dosed by diluting the compounds in 50% Methanol followed by lyophilisation and stored at 4° C.
(§7) Plasmodium isolates were collected from patients attending malaria clinics in Timika (Papua, Indonesia), a region endemic for multi-drug-resistant strains of P. vivax and P. falciparum. Patients with symptomatic malaria presenting to an outpatient facility were recruited into the study if singly infected with P. falciparum or P. vivax, with a parasitaemia of between 2,000 μl-1 and 80,000 μl-1, and the majority (>80%) of parasites at ring stage of development. Venous blood (5 mL) was collected by venipuncture and after removal of host white blood cells by using cellulose (Sigma-Aldrich, Australia) filtration, packed infected red blood cells (iRBCs) were used for the ex vivo drug susceptibility assay.
(§8) Drug susceptibility of P. vivax and P. falciparum isolates was measured using a protocol modified from the WHO microtest as described previously (Marfurt et al., 2011, Antimicrob Agents Chemother., 55(9):4461). Two hundred μL of a 2% haematocrit Blood Media Mixture (BMM), consisting of RPMI 1640 medium plus 10% AB+ human serum (P. falciparum) or McCoy's 5 A medium plus 20% AB+ human serum (P. vivax), was added to each well of pre-dosed drug plates containing 11 serial concentrations (2-fold dilutions) of the antimalarials (maximum concentration shown in brackets) CQ (2,992 nM), AQ (158 nM), PIP (1,029 nM), MFQ (338 nM), AS (49 nM), and a compound of the invention (2,146 nM). A candle jar was used to mature the parasites at 37.0° C. for 35-56 hours.
(§9) Thick blood films made from each well were stained with 5% Giemsa solution for 30 minutes and examined microscopically. The number of schizonts per 200 asexual stage parasites was determined for each drug concentration and normalised to the control well. The dose-response data were analysed using nonlinear regression analysis (WinNonLn 4.1, Pharsight Corporation) and the IC50 value derived using an inhibitory sigmoid Emax model. […] Drug plate quality was assured by running schizont maturation assays (two independent experiments) with the chloroquine-resistant strain K1 and the chloroquine-sensitive strain FC27.
(§10) For microscopy slide reading QC, two randomly selected drugs per isolate were read by a second microscopist. […] If necessary, discrepant results were resolved by a third reading by an expert microscopist.

P. vivax field isolates = assay: Ex vivo drug susceptibility (schizont maturation) of P. vivax field isolates; format: cell-based; conditions: Plasmodium vivax, read-out: P. vivax IC50
Description: as §4, §5, §6, §7, §8, §9, §10

[4] = Identification of metabolites of Example 13, rat liver microsomes or hepatocytes; format: in vitro ADME; conditions: metabolite of Example 13
Description: (§11) Identification of In Vivo Metabolites
(§12) Metabolites of Example 13 were identified both in vitro and in vivo using the following models: • In vitro: The compound of Example 13 was incubated with human (HLM) or rat (RLM) liver microsomes (1 mg/ml protein concentration in 100 mM phosphate buffer, pH 7.4) at a final concentration of 10 μM in the presence of 2 mM NADPH. The reactive intermediates were trapped by including 2 mM glutathione (GSH) or N-acetyl cysteine (NAC) in the reaction mix. • In vivo in bile duct cannulated rats: Example 13 was administered intravenously (IV) as a bolus through the jugular vein at a dose of 2 mg/kg or 4 mg/kg of body weight for control (n=3) or BDC rats (n=2), respectively. Blood samples were collected at 0.083, 0.25, 0.5, 1, 2, 4, 6, 8 and 24 h through the carotid artery, bile samples were collected at 0-2 h, 2-4 h, 4-6 h, 6-8 h and 8-24 h intervals and urine samples were collected at 0-8 h and 8-24 h intervals. The bile and urine samples were analyzed for the presence of parent and metabolites and blood samples were analyzed for the presence of parent.

[5] = Identification of metabolites of Example 13, human liver microsomes or hepatocytes; format: in vitro ADME; conditions: metabolite of Example 13
Description: as §11, §12

[6] = Identification of metabolites of Example 13, mouse liver microsomes or hepatocytes; format: in vitro ADME; conditions: metabolite of Example 13
Description: as §11, §12

[7] = Plasmodium falciparum, NF54 strain, chloroquine sensitive, read-out: Pf IC50—NF54
[8] = Plasmodium falciparum, K1 strain, chloroquine-resistant, read-out: Pf IC50—K1
[9] = Plasmodium falciparum, NF54, read-out: Pf IC50—NF54
[10] = Plasmodium falciparum, K1, read-out: Pf IC50—K1

With `Cc1nc(Nc2ncc(N3CCN(C)[C@H](C)C3)c(Nc3cnn(C)n3)n2)cc(C2CC2)c1F` [Example 15, (R)—N2-(4-cyclopropyl-5-fluoro-6-methylpyridin-2-yl)-5-(3,4-dimethylpiperazin-1-yl)-N4-(2-methyl-2H-1,2,3-triazol-4-yl)pyrimidine-2,4-diamine] the IC50 [1, 7] was 17 nM and the IC50 [2, 8] was 37 nM.

`C[C@H]1[C@H](OC(=O)CCC(=O)O)O[C@@H]2O[C@@]3(C)CC[C@H]4[C@H](C)CC[C@@H]1[C@@]24OO3` [Artesunate, artesunate] gave an IC50 [3] of 15.1 nM and an IC50 (P. vivax field isolates) of 4.79 nM.

For `Cc1nc(Nc2ncc(N3CCN[C@H](C)C3)c(Nc3cc(C)n(C)n3)n2)cc(C2CC2)c1F` [Example 2, (R)—N2-(4-cyclopropyl-5-fluoro-6-methylpyridin-2-yl)-N4-(1,5-dimethyl-1H-pyrazol-3-yl)-5-(3-methylpiperazin-1-yl)pyrimidine-2,4-diamine dihydrochloride], the IC50 [3] was 63.6 nM, the IC50 (P. vivax field isolates) was 81 nM and the IC50 [1, 9] was 14 nM. The IC50 [2, 10] was 19 nM, the “Presence of proposed metabolite (N-demethylation) in liver microsomes or hepatocytes” value (shortened to “Presence of proposed metabolite”) [4] was “✓” and the “Presence of proposed metabolite” value [5] was “✓”. For the same compound, the “Presence of proposed metabolite” value [6] was “✓”.

Compound `Cc1nc(Nc2ncc(N3CCN[C@H](C)C3)c(Nc3cc(C)n(C)n3)n2)cc(C2CCC2)c1F` [Example 9, (R)—N2-(4-cyclobutyl-5-fluoro-6-methylpyridin-2-yl)-N4-(1,5-dimethyl-1H-pyrazol-3-yl)-5-(3-methylpiperazin-1-yl)pyrimidine-2,4-diamine dihydrochloride] has an IC50 [1, 9] of 25 nM and an IC50 [2, 10] of 48 nM.

`Cc1nc(Nc2ncc(N3CCN[C@H](C)C3)c(Nc3cc(C)n(C)n3)n2)cc(C2CC2)c1Cl` [Example 5, (R)—N2-(5-chloro-4-cyclopropyl-6-methylpyridin-2-yl)-N4-(1,5-dimethyl-1H-pyrazol-3-yl)-5-(3-methylpiperazin-1-yl)pyrimidine-2,4-diamine dihydrochloride] gave an IC50 [1, 9] of 23 nM and an IC50 [2, 10] of 48 nM.

In the case of `CCc1nc(N)nc(N)c1-c1ccc(Cl)cc1` [Pyrimethamine, pyrimethamine, reference compound], the IC50 [1, 7] is reported as 64 nM and the IC50 [2, 8] is reported as 7900 nM.

With `CCn1nc(Nc2nc(Nc3cc(C4CC4)c(F)c(C)n3)ncc2N2CCN[C@H](C)C2)cc1C` [Example 3, (R)—N2-(4-cyclopropyl-5-fluoro-6-methylpyridin-2-yl)-N4-(1-ethyl-5-methyl-1H-pyrazol-3-yl)-5-(3-methylpiperazin-1-yl)pyrimidine-2,4-diamine dihydrochloride] the IC50 [1, 9] was 17 nM and the IC50 [2, 10] was 14 nM.

Work on `CCc1cc(Nc2ncc(N3CCNC(C)C3)c(Nc3cc(C)n(C)n3)n2)nc(C)c1F` (stereo in doubt) [Example 8, (R)—N4-(1,5-dimethyl-1H-pyrazol-3-yl)-N2-(4-ethyl-5-fluoro-6-methylpyridin-2-yl)-5-(3-methylpiperazin-1-yl)pyrimidine-2,4-diamine dihydrochloride] yielded an IC50 [1, 9] of 35 nM and an IC50 [2, 10] of 44 nM.

For `CCN(CC)CCCC(C)Nc1ccnc2cc(Cl)ccc12` (stereo not drawn) [Chloroquine, chloroquine, reference compound], the IC50 [3] was 60.8 nM, the IC50 (P. vivax field isolates) was 40.2 nM and the IC50 [1, 9] was 11 nM. The IC50 [2, 10] was > 150 nM.

`Cc1nc(Nc2ncc(N3CCN[C@H](C)C3)c(Nc3cc(C)n(C)n3)n2)cc(C2CC2)c1C#N` [Example 6, (R)-4-cyclopropyl-6-((4-((1,5-dimethyl-1H-pyrazol-3-yl)amino)-5-(3-methylpiperazin-1-yl)pyrimidin-2-yl)amino)-2-methylnicotinonitrile dihydrochloride] showed an IC50 [1, 9] of 31 nM and an IC50 [2, 10] of 45 nM.

`Cc1nc(Nc2ncc(N3CCN[C@H](C)C3)c(Nc3cn(C)nn3)n2)cc(C2CC2)c1F` [Example 4, (R)—N2-(4-cyclopropyl-5-fluoro-6-methylpyridin-2-yl)-N4-(1-methyl-1H-1,2,3-triazol-4-yl)-5-(3-methylpiperazin-1-yl)pyrimidine-2,4-diamine dihydrochloride] gave an IC50 [1, 9] of 33 nM and an IC50 [2, 10] of 51 nM.

`Cc1nc(Nc2ncc(N3CCN[C@H](C)C3)c(Nc3cn(C)nn3)n2)cc(C2CC2)c1Cl` [Example 11, (R)—N2-(5-chloro-4-cyclopropyl-6-methylpyridin-2-yl)-N4-(1-methyl-1H-1,2,3-triazol-4-yl)-5-(3-methylpiperazin-1-yl)pyrimidine-2,4-diamine dihydrochloride] gave an IC50 [1, 9] of 30 nM and an IC50 [2, 10] of 50 nM.

Work on `Cc1nc(Nc2ncc(N3CCN(C)CC3)c(Nc3cn(C)nn3)n2)cc(C2CC2)c1F` [Example 1, N2-(4-cyclopropyl-5-fluoro-6-methylpyridin-2-yl)-N4-(1-methyl-1H-1,2,3-triazol-4-yl)-5-(4-methylpiperazin-1-yl)pyrimidine-2,4-diamine] yielded an IC50 [1, 7] of 15 nM and an IC50 [2, 8] of 24 nM.

With `Clc1ccc2c(N3CCN(CCCN4CCN(c5ccnc6cc(Cl)ccc56)CC4)CC3)ccnc2c1` [Piperaquine, piperaquine] the IC50 [3] was 16.9 nM and the IC50 (P. vivax field isolates) was 5.9 nM.

For “(R)—N2-(5-Fluoro-4-cyclopropyl-6-methylpyridin-2-yl)-N4-(2-methyl-2H-1,2,3-triazol-4-yl)-5-(3-methylpiperazin-1-yl)pyrimidine-2,4-diamine dihydochloride [Example 12]”, the IC50 ([1]; NF54 strain, chloroquine sensitive, read-out: Pf IC50—NF54) was 39 nM and the IC50 ([2]; K1 strain, chloroquine-resistant, read-out: Pf IC50—K1) was 82 nM.

`Cc1nc(Nc2ncc(N3CCN(C)[C@H](C)C3)c(Nc3cn(C)nn3)n2)cc(C2CC2)c1F` [Example 14, (R)—N2-(4-cyclopropyl-5-fluoro-6-methylpyridin-2-yl)-5-(3,4-dimethylpiperazin-1-yl)-N4-(1-methyl-1H-1,2,3-triazol-4-yl)pyrimidine-2,4-diamine] gave an IC50 [1, 7] of 33 nM and an IC50 [2, 8] of 69 nM.
